Reference: US20140378408A1, “NUCLEOSIDE 5'-PHOSPHOROTHIOATE ANALOGUES AND USES THEREOF” (BAR-ILAN UNIVERSITY, an Israeli University, priority 2012, published 2014)
Read-outs that look alike come from different tables or passages of the source.

Tests used:
[1] = molecular target: T1, human NPP1 (Homo sapiens, UniProt P22413); assay: Inhibition of NPP1 activity; format: biochemical; settings: for type of inhibition: Dixon and Cornish-Bowden methods; for inhibition of pnp-TMP hydrolysis by NPP1: analogue and pnp-TMP 100 μM
T1 construct: made in house; host or cells: COS-7 cells (transfected; protein extract / cell lysate)
T1 sequence (P22413 1-925): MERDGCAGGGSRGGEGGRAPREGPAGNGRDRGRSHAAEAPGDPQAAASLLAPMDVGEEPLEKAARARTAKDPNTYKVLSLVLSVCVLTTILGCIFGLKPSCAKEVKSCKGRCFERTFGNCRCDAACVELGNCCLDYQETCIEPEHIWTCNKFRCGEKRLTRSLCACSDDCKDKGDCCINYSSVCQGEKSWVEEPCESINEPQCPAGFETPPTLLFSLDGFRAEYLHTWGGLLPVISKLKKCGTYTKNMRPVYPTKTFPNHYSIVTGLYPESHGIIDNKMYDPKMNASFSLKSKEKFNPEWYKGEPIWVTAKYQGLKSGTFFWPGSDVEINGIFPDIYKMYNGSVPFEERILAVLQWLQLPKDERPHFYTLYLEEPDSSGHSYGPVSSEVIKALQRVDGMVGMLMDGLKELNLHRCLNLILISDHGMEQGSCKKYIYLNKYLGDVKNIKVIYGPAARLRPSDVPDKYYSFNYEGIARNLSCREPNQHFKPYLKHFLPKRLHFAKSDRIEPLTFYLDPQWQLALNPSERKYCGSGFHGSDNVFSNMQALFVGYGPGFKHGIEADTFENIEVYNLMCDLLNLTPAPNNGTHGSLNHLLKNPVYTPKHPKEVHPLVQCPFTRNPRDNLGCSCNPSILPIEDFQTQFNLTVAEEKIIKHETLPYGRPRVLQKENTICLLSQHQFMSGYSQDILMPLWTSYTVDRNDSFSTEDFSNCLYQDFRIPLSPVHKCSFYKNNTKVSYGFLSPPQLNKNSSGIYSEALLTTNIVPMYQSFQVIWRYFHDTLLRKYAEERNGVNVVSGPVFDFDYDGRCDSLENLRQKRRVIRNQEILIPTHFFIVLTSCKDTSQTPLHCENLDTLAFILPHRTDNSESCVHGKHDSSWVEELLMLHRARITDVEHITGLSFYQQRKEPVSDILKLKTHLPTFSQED

[2] = molecular target: T2, human P2Y11-R (Homo sapiens, UniProt Q96G91); assay: [Ca^2+]i response of 1321N1 astrocytoma cells expressing P2Y11-R GFP; format: cell-based
T2 construct: expressed in transfected cells; host or cells: 1321N1 astrocytoma cells
T2 sequence (Q96G91 1-374): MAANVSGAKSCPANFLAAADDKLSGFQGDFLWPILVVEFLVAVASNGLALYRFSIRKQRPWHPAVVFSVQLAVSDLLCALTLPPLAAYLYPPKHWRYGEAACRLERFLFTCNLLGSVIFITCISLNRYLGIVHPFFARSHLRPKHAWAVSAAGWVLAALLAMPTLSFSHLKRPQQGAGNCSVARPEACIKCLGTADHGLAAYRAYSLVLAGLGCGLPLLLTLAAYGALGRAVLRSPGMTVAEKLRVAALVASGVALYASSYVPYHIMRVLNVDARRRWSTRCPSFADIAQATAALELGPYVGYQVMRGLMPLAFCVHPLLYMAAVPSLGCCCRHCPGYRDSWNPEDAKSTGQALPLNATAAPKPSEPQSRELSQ

[3] = molecular target: T3, human NTPDase1 (Homo sapiens, UniProt P49961); assay: Inhibition of NTPDase1 activity; settings: for effect on human NTPDase1 activity: Table 5, ATP and analogue 100 μM, 100% activity = ATP alone, read as inhibition; for inhibition of the hydrolysis of ATP by NTPDase1: analogue and ATP 100 μM
T3 sequence (P49961 1-510): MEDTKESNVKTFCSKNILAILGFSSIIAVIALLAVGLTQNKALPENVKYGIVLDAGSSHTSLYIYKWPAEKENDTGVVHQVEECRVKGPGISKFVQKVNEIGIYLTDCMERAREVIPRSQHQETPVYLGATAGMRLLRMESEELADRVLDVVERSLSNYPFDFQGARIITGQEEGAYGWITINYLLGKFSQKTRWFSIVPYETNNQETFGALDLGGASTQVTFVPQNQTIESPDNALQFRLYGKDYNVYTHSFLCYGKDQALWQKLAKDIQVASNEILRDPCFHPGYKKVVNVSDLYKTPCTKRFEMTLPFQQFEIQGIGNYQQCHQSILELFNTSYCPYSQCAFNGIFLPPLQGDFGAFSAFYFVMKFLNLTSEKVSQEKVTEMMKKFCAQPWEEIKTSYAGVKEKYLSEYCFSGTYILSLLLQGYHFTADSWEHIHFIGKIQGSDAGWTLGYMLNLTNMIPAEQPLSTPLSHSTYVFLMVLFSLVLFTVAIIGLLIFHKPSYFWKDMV

[4] = molecular target: T3, human NTPDase1; assay: Hydrolysis by human NTPDase1; format: in vitro ADME; design: made in house; host or cells: COS-7 cells (transfected; protein extract); settings: for Hydrolysis by NTPDase1: 100 μM, 1 h, activity with 100 μM ATP = 100%
[5] = molecular target: T4, human NTPDase8 (Homo sapiens, UniProt Q5MY95); assay: Inhibition of NTPDase8 activity; format: biochemical; settings: for effect on human NTPDase8 activity: Table 5, ATP and analogue 100 μM, 100% activity = ATP alone; for inhibition of the hydrolysis of ATP by NTPDase8: analogue and ATP 100 μM
T4 construct: made in house; host or cells: COS-7 cells (transfected; protein extract)
T4 sequence (Q5MY95 1-495): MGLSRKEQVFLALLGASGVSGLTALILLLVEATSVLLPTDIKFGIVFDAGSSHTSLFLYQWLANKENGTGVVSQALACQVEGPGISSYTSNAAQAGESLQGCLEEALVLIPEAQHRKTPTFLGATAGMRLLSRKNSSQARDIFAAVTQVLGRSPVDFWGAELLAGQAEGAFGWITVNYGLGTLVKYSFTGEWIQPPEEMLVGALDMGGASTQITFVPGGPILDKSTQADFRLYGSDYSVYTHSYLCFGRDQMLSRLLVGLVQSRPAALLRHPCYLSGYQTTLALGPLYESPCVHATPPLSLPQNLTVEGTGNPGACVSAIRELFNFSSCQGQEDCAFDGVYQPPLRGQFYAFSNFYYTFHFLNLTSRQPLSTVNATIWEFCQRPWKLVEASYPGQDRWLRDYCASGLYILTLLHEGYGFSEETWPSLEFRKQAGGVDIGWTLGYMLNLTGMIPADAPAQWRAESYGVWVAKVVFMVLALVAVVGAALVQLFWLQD

In the case of `Nc1ncnc2c1ncn2[C@@H]1O[C@H](COP(O)(=S)OP(=O)(O)C(Cl)(Cl)P(=O)(O)O)[C@@H](O)[C@H]1O` (single isomer, unassigned) [APPCCl2P-α-S, adenosine 5′-[Pα-thio]-β,γ-(dichloromethylene)triphosphate], the IC50 [1] is reported as 0.39 µM, the Ki [1] is reported as 0.02 µM and the type of inhibition [1] is reported as “mixed type inhibition, predominantly competitive”. The EC50 [2] was > 10 µM.

For `Nc1ncnc2c1ncn2[C@@H]1O[C@H](COP(O)(=S)OP(=O)(O)C(Cl)(Cl)P(=O)(O)O)[C@@H](O)[C@H]1O` (single isomer, unassigned; isomer a) [APPCCl2P-α-S (isomer A), adenosine 5′-[Pα-thio]-β,γ-(dichloromethylene)triphosphate], the “effect on human NTPDase1 activity” value ([3]; listed as APPCCl2P-α-S A) was 0.5 ± 0.01%, the “inhibition of the hydrolysis of ATP by NTPDase1” value (“inhibition … by NTPDase1” for short) [3] was “did not interfere” and the “Hydrolysis by NTPDase1” value ([4]; listed as APPCCl2P-α-S A) was 5.3 ± 0.2%. The “effect on human NTPDase8 activity” value ([5]; listed as APPCCl2P-α-S A) was 4.9 ± 0.2%, the “inhibition of the hydrolysis of ATP by NTPDase8” value (shortened to “inhibition … by NTPDase8”) [5] was “did not interfere” and the IC50 ([1]; NPP1, text, read-out: IC50) was 0.6 µM. For the same compound, the Ki ([1]; NPP1, text, read-out: Ki) was 0.685 µM and the “agonism at the P2Y11-receptor” value [2] was “not an agonist”.

`Nc1ncnc2c1ncn2[C@@H]1O[C@H](COP(O)(=S)OP(=O)(O)CP(=O)(O)O)[C@@H](O)[C@H]1O` (single isomer, unassigned; isomer a) [APPCP-α-S (isomer A), adenosine 5′-[Pα-thio]-β,γ-methylenetriphosphate] was tested, and the “effect on human NTPDase1 activity” value ([3]; listed as APPCP-α-S A) was 58.4 ± 2.1%, the “inhibition … by NTPDase1” value [3] was “did not interfere” and the “Hydrolysis by NTPDase1” value ([4]; listed as APPCP-α-S A) was 4.4%. For the same compound, the “effect on human NTPDase8 activity” value ([5]; listed as APPCP-α-S A) was 7.0 ± 0.3%, the “inhibition … by NTPDase8” value [5] was “did not interfere” and the Ki ([1]; dissociation constant for EIS complex, Cornish-Bowden plot, listed as APPCP-α-S A, read-out: Ki′) was 4.5 ± 0.003 µM. For the same compound, the Ki ([1]; pNP-TMP as substrate, Dixon plot, listed as APPCP-α-S A, read-out: Ki) was 4.5 ± 0.03 µM and the “agonism at the P2Y11-receptor” value [2] was “not an agonist”.

`Nc1ncnc2c1ncn2[C@@H]1O[C@H](COP(O)(=S)OP(=O)(O)C(Cl)(Cl)P(=O)(O)O)[C@@H](O)[C@H]1O` (single isomer, unassigned; isomer b) [APPCCl2P-α-S (isomer B), adenosine 5′-[Pα-thio]-β,γ-(dichloromethylene)triphosphate] was tested, and the “effect on human NTPDase1 activity” value ([3]; listed as APPCCl2P-α-S B) was 21.6 ± 1.0%, the “inhibition … by NTPDase1” value [3] was “did not interfere” and the “Hydrolysis by NTPDase1” value ([4]; listed as APPCCl2P-α-S B) was 5.4%. The “effect on human NTPDase8 activity” value ([5]; listed as APPCCl2P-α-S B) was 1.5 ± 0.06%, the “inhibition … by NTPDase8” value [5] was “did not interfere” and the Ki ([1]; pNP-TMP as substrate, Dixon plot, read-out: Ki) was 15.2 ± 0.1 µM. For the same compound, the “times more potent than ATP at the P2Y11 receptor” value (“times more potent than ATP” below) [2] was 2 fold.

`Nc1ncnc2c1ncn2[C@@H]1O[C@H](COP(O)(=S)OP(=O)(O)CP(=O)(O)O)[C@@H](O)[C@H]1O` (single isomer, unassigned; isomer b) [APPCP-α-S (isomer B), adenosine 5′-[Pα-thio]-β,γ-methylenetriphosphate] was tested, and the “effect on human NTPDase1 activity” value ([3]; listed as APPCP-α-S B) was 0.5 ± 0.02%, the “inhibition … by NTPDase1” value [3] was “did not interfere” and the “Hydrolysis by NTPDase1” value ([4]; listed as APPCP-α-S B) was 5.4 ± 0.2%. The “effect on human NTPDase8 activity” value ([5]; listed as APPCP-α-S B) was 0.5 ± 0.01%, the “inhibition … by NTPDase8” value [5] was “did not interfere” and the Ki ([1]; pNP-TMP as substrate, Dixon plot, listed as APPCP-α-S B, read-out: Ki) was 1.3 ± 0.01 µM. The “times more potent than ATP” value [2] was 7 fold.

`Nc1ncnc2c1ncn2[C@@H]1O[C@H](COP(=O)(O)OP(O)(O)=S)[C@@H](O)[C@H]1O` [ADP-β-S, adenosine 5′-[β-thio]diphosphate, reference compound] was tested, and the “inhibition … by NTPDase1” value [3] was “less than 50%”, the “inhibition … by NTPDase8” value [5] was “less than 50%” and the “inhibition of pnp-TMP hydrolysis by NPP1” value [1] was 95%.

In the case of `Nc1ncnc2c1ncn2[C@@H]1O[C@H](COP(=O)(O)CP(=O)(O)OP(O)(O)=S)[C@@H](O)[C@H]1O` [APCPP-γ-S, adenosine 5′-[Pγ-thio]-α,β-methylenetriphosphate], the “effect on human NTPDase1 activity” value [3] is reported as 18.7 ± 0.8%, the “Hydrolysis by NTPDase1” value [4] is reported as 5.3 ± 0.2% and the “effect on human NTPDase8 activity” value [5] is reported as 0.50 ± 0.02%. For the same compound, the Ki [1] was < 9 µM, the type of inhibition [1] was “mixed type inhibition, predominantly competitive” and the Ki ([1]; NPP1, text, read-out: Ki) was 0.02 µM. For the same compound, the EC50 [2] was > 10 µM, the “times more potent than ATP” value [2] was 6.7 fold and the EC50 ([2]; agonist, read-out: EC50 at the P2Y11 receptor) was 1 µM.

For adenosine-5′-tetrathiobisphosphonate, the “inhibition … by NTPDase1” value [3] was 54%, the “Relative hydrolysis by NTPDase1” value [4] was 1 ± 0.2 % ± SD of ADP or AP2A hydrolysis and the “inhibition … by NTPDase8” value [5] was 49%. The “inhibition of pnp-TMP hydrolysis by NPP1” value [1] was 4%.

For “di-adenosine-5′,5″-tetrathiobisphosphonate”, the “inhibition … by NTPDase1” value [3] was ~60%, the “inhibition … by NTPDase8” value [5] was 5-20% and the “inhibition of pnp-TMP hydrolysis by NPP1” value [1] was ~60%.
